{"source": "patent US6642216B2", "about": "“Isoprenoid pathway inhibitors for stimulating bone growth” (ZymoGenetics Corporation, priority 1996, dated 2003)", "key": {"BMP-2 promoter": {"system": "BMP-2 promoter", "test": "ABA assay: BMP-2 promoter-luciferase reporter in 2T3-BMP-2-LUC osteoblast cells", "type": "cell-based, mouse", "procedure": "These transformed cells are then evaluated for the production of the reporter gene product; compounds that activate the BMP promoter will drive production of the reporter protein, which can be readily assayed.\nThe cells were cultured using α-MEM, 10% FCS with 1% penicillin/streptomycin and 1% glutamine (“plating medium”), and were split 1:5 once per week. For the assay, the cells were resuspended in a plating medium containing 4% FCS, plated in microtiter plates at a concentration of 5×10^3 cells (in 50 μl)/well, and incubated for 24 hours at 37° C. in 5% CO2. To initiate the assay, 50 μl of the test compound or the control in DMSO was added at 2× concentration to each well, so that the final volume was 100 μl. The final serum concentration was 2% FCS, and the final DMSO concentration was 1%.\nThe treated cells were incubated for 24 hours at 37° C. and 5% CO2. The medium was then removed, and the cells were rinsed three times with PBS. After removal of excess PBS, 25 μl of 1× cell culture lysing reagent (Promega #E153A) was added to each well and incubated for at least ten minutes. Optionally, the plates/samples could be frozen at this point. To each well was added 50 μl of luciferase substrate (Promega #E152A; 10 ml Promega luciferase assay buffer per 7 mg Promega luciferase assay substrate). Luminescence was measured on an automated 96-well luminometer, and was expressed as either picograms of luciferase activity per well or as picograms of luciferase activity per microgram of protein.\nAlternatively, the reactivity of a compound to be tested can be compared directly to a negative control containing no compound."}, "neonatal mouse calvaria": {"system": "neonatal mouse calvaria", "test": "Neonatal mouse calvaria assay (in vitro bone formation)", "type": "cell-based", "settings": "for effect on new bone area: under these conditions (0.1-1000 μM)", "procedure": "Briefly, four days after birth, the front and parietal bones of ICR Swiss white mouse pups are removed by microdissection and split along the sagittal suture.\nThree μm sections of the calvaria are prepared. Representative sections are selected for histomorphometric assessment of bone formation or bone resorption. Bone changes are measured on sections cut 200 μm apart. Osteoblasts and osteoclasts are identified by their distinctive morphology.\nSelected compounds and appropriate controls were assayed in vitro (ex vivo) for bone formation activity (described above in “Neonatal Mouse Calvaria Assay (in vitro)”). Histomorphometrical assessments of ex vivo calvaria were carried out using an OsteoMetrics bone morphometry measurement program, according to the manufacturer's instructions. Measurements were determined using either a 10- or 20-fold objective with a standard point counting eyepiece graticule.\nNew bone formation was determined (using a 10× objective) by measuring the new bone area formed in one field in 3 representative sections of each bone (4 bones per group). Each measurement was carried out ½ field distance from the end of the suture. Both total bone and old bone area were measured. Data were expressed as new bone area in mm^2.\nOsteoblast numbers were determined by point counting. The number of osteoblast cells lining the bone surface on both sides of the bone were counted in one field using a 20× objective. Data were expressed as osteoblast numbers/mm of bone surface.\nThe results were calculated as new bone area in mm^2×10^−3, as above."}, "[1]": {"settings": "Experiment 3, 8.88178E μg/ml (0.002193 μM lovastatin, 0.002087 μM fluvastatin)"}}, "data": [{"smiles": "c1ccc(N=NC2=NNc3ccccc3S2)cc1", "note": "[59-0008, 3-phenylazo-1H-4,1,2-benzothiadiazine]", "values": [{"measurement": "concentration at which reactivity is maximal", "setting": "BMP-2 promoter", "result": "3 to 10", "unit": "µM"}]}, {"smiles": "NCCCC(O)(P(=O)(O)O)P(=O)(O)O", "note": "[Alendronate, alendronate]", "values": [{"measurement": "New Bone Area", "setting": "neonatal mouse calvaria; other bisphosphonates, 0.1 μM", "result": "3.5 ± 0.3", "unit": "mm^2 × 10^−3"}, {"measurement": "New Bone Area", "setting": "neonatal mouse calvaria; other bisphosphonates, 1 μM", "result": "5.2 ± 0.5", "unit": "mm^2 × 10^−3"}, {"measurement": "New Bone Area", "setting": "neonatal mouse calvaria; other bisphosphonates, 10 μM", "result": "3.3 ± 0.6", "unit": "mm^2 × 10^−3"}, {"measurement": "New Bone Area", "setting": "neonatal mouse calvaria; other bisphosphonates, 100 μM", "result": "Toxic"}, {"measurement": "effect on new bone area", "setting": "neonatal mouse calvaria", "result": "negligible effects"}]}, {"smiles": "O=P(O)(O)C(Cl)(Cl)P(=O)(O)O", "note": "[Clodronate, clodronate]", "values": [{"measurement": "New Bone Area", "setting": "neonatal mouse calvaria; other bisphosphonates, 10 μM", "result": "4.8 ± 1.3", "unit": "mm^2 × 10^−3"}, {"measurement": "New Bone Area", "setting": "neonatal mouse calvaria; other bisphosphonates, 100 μM", "result": "4.6 ± 0.6", "unit": "mm^2 × 10^−3"}, {"measurement": "New Bone Area", "setting": "neonatal mouse calvaria; other bisphosphonates, 1000 μM", "result": "3.5 ± 0.5", "unit": "mm^2 × 10^−3"}, {"measurement": "effect on new bone area", "setting": "neonatal mouse calvaria", "result": "negligible effects"}]}, {"smiles": "CC(C)n1c(/C=C/C(O)CC(O)CC(=O)O)c(-c2ccc(F)cc2)c2ccccc21", "note": "(stereo not drawn) [Fluvastatin, fluvastatin]", "values": [{"measurement": "% 59-0008 Response", "setting": "BMP-2 promoter; Experiment 1, 0.195312 μg/ml", "result": 36.820, "unit": "%"}, {"measurement": "Fold increase over negative control", "setting": "BMP-2 promoter; Experiment 1, 0.195312 μg/ml", "result": 2.630, "unit": "fold"}, {"measurement": "% 59-0008 Response", "setting": "BMP-2 promoter; Experiment 1, 0.390625 μg/ml", "result": 28.080, "unit": "%"}, {"measurement": "Fold increase over negative control", "setting": "BMP-2 promoter; Experiment 1, 0.390625 μg/ml", "result": 2.243, "unit": "fold"}, {"measurement": "% 59-0008 Response", "setting": "BMP-2 promoter; Experiment 1, 0.78125 μg/ml", "result": 75.160, "unit": "%"}, {"measurement": "Fold increase over negative control", "setting": "BMP-2 promoter; Experiment 1, 0.78125 μg/ml", "result": 4.328, "unit": "fold"}, {"measurement": "% 59-0008 Response", "setting": "BMP-2 promoter; Experiment 1, 1.5625 μg/ml", "result": 117.980, "unit": "%"}, {"measurement": "Fold increase over negative control", "setting": "BMP-2 promoter; Experiment 1, 1.5625 μg/ml", "result": 6.223, "unit": "fold"}, {"measurement": "% 59-0008 Response", "setting": "BMP-2 promoter; Experiment 1, 3.125 μg/ml", "result": 173.280, "unit": "%"}, {"measurement": "Fold increase over negative control", "setting": "BMP-2 promoter; Experiment 1, 3.125 μg/ml", "result": 8.672, "unit": "fold"}, {"measurement": "% 59-0008 Response", "setting": "BMP-2 promoter; Experiment 1, 6.25 μg/ml", "result": 165.630, "unit": "%"}, {"measurement": "Fold increase over negative control", "setting": "BMP-2 promoter; Experiment 1, 6.25 μg/ml", "result": 8.333, "unit": "fold"}, {"measurement": "% 59-0008 Response", "setting": "BMP-2 promoter; Experiment 1, 12.5 μg/ml", "result": 164.450, "unit": "%"}, {"measurement": "Fold increase over negative control", "setting": "BMP-2 promoter; Experiment 1, 12.5 μg/ml", "result": 8.281, "unit": "fold"}, {"measurement": "% 59-0008 Response", "setting": "BMP-2 promoter; Experiment 1, 25 μg/ml", "result": 137.500, "unit": "%"}, {"measurement": "Fold increase over negative control", "setting": "BMP-2 promoter; Experiment 1, 25 μg/ml", "result": 7.088, "unit": "fold"}, {"measurement": "% 59-0008 Response", "setting": "BMP-2 promoter; Experiment 1, 50 μg/ml", "result": "−22.660", "unit": "%"}, {"measurement": "Fold increase over negative control", "setting": "BMP-2 promoter; Experiment 1, 50 μg/ml", "result": "−0.003", "unit": "fold"}, {"measurement": "% 59-0008 Response", "setting": "BMP-2 promoter; Experiment 1, 200 μg/ml", "result": "−22.700", "unit": "%"}, {"measurement": "Fold increase over negative control", "setting": "BMP-2 promoter; Experiment 1, 200 μg/ml", "result": "−0.005", "unit": "fold"}, {"measurement": "% 59-0008 Response", "setting": "BMP-2 promoter; Experiment 3, 0.002842 μg/ml", "result": "−3.26", "unit": "%"}, {"measurement": "Fold increase over negative control", "setting": "BMP-2 promoter; Experiment 3, 0.002842 μg/ml", "result": 0.83, "unit": "fold"}, {"measurement": "% 59-0008 Response", "setting": "BMP-2 promoter; Experiment 3, 0.009094 μg/ml", "result": "−3.84", "unit": "%"}, {"measurement": "Fold increase over negative control", "setting": "BMP-2 promoter; Experiment 3, 0.009094 μg/ml", "result": 0.8, "unit": "fold"}, {"measurement": "% 59-0008 Response", "setting": "BMP-2 promoter; Experiment 3, 0.029103 μg/ml", "result": "−5.18", "unit": "%"}, {"measurement": "Fold increase over negative control", "setting": "BMP-2 promoter; Experiment 3, 0.029103 μg/ml", "result": 0.73, "unit": "fold"}, {"measurement": "% 59-0008 Response", "setting": "BMP-2 promoter; Experiment 3, 0.093132 μg/ml", "result": "−2.11", "unit": "%"}, {"measurement": "Fold increase over negative control", "setting": "BMP-2 promoter; Experiment 3, 0.093132 μg/ml", "result": 0.89, "unit": "fold"}, {"measurement": "% 59-0008 Response", "setting": "BMP-2 promoter; Experiment 3, 0.298023 μg/ml", "result": "−3.26", "unit": "%"}, {"measurement": "Fold increase over negative control", "setting": "BMP-2 promoter; Experiment 3, 0.298023 μg/ml", "result": 0.83, "unit": "fold"}, {"measurement": "% 59-0008 Response", "setting": "BMP-2 promoter; Experiment 3, 0.953674 μg/ml", "result": 2.3, "unit": "%"}, {"measurement": "Fold increase over negative control", "setting": "BMP-2 promoter; Experiment 3, 0.953674 μg/ml", "result": 1.12, "unit": "fold"}, {"measurement": "% 59-0008 Response", "setting": "BMP-2 promoter; Experiment 3, 3.051757 μg/ml", "result": 22.66, "unit": "%"}, {"measurement": "Fold increase over negative control", "setting": "BMP-2 promoter; Experiment 3, 3.051757 μg/ml", "result": 2.18, "unit": "fold"}, {"measurement": "% 59-0008 Response", "setting": "BMP-2 promoter; Experiment 3, 9.765625 μg/ml", "result": 103.7, "unit": "%"}, {"measurement": "Fold increase over negative control", "setting": "BMP-2 promoter; Experiment 3, 9.765625 μg/ml", "result": 6.4, "unit": "fold"}, {"measurement": "% 59-0008 Response", "setting": "BMP-2 promoter; Experiment 3, 31.25 μg/ml", "result": 122.53, "unit": "%"}, {"measurement": "Fold increase over negative control", "setting": "BMP-2 promoter; Experiment 3, 31.25 μg/ml", "result": 7.38, "unit": "fold"}, {"measurement": "% 59-0008 Response", "setting": "BMP-2 promoter; [1]", "result": "−0.19", "unit": "%"}, {"measurement": "Fold increase over negative control", "setting": "BMP-2 promoter; [1]", "result": 0.99, "unit": "fold"}]}, {"smiles": "CCCCCN(C)CCC(O)(P(=O)(O)O)P(=O)(O)O", "note": "[Ibandronate, ibandronate]", "values": [{"measurement": "effect on bone formation (dose response curves)", "setting": "neonatal mouse calvaria; 10 μM", "result": "significant increase of bone formation"}, {"measurement": "New Bone Area", "setting": "neonatal mouse calvaria; Experiment 1, 10 μM", "result": "8.3 ± 0.7", "unit": "mm^2 × 10^−3"}, {"measurement": "New Bone Area", "setting": "neonatal mouse calvaria; Experiment 1, 100 μM", "result": "Toxic"}, {"measurement": "New Bone Area", "setting": "neonatal mouse calvaria; Experiment 1, 1000 μM", "result": "Toxic"}, {"measurement": "New Bone Area", "setting": "neonatal mouse calvaria; Experiment 2, 0.01 μM", "result": "3.5 ± 0.43", "unit": "mm^2 × 10^−3"}, {"measurement": "New Bone Area", "setting": "neonatal mouse calvaria; Experiment 2, 0.1 μM", "result": "3.2 ± 0.56", "unit": "mm^2 × 10^−3"}, {"measurement": "New Bone Area", "setting": "neonatal mouse calvaria; Experiment 2, 1 μM", "result": "4.9 ± 1.2", "unit": "mm^2 × 10^−3"}, {"measurement": "New Bone Area", "setting": "neonatal mouse calvaria; Experiment 2, 10 μM", "result": "7.2 ± 0.7", "unit": "mm^2 × 10^−3"}, {"measurement": "New Bone Area", "setting": "neonatal mouse calvaria; Experiment 2, 100 μM", "result": "Toxic"}, {"measurement": "New Bone Area", "setting": "neonatal mouse calvaria; Experiment 2, 1000 μM", "result": "Toxic"}, {"measurement": "New Bone Area", "setting": "neonatal mouse calvaria; Experiment 3, 0.1 μM", "result": "6.2 ± 0.6", "unit": "mm^2 × 10^−3"}, {"measurement": "New Bone Area", "setting": "neonatal mouse calvaria; Experiment 3, 1 μM", "result": "7.5 ± 0.7", "unit": "mm^2 × 10^−3"}, {"measurement": "New Bone Area", "setting": "neonatal mouse calvaria; Experiment 3, 10 μM", "result": "9.5 ± 2.4", "unit": "mm^2 × 10^−3"}, {"measurement": "New Bone Area", "setting": "neonatal mouse calvaria; Experiment 3, 100 μM", "result": "Toxic"}, {"measurement": "New Bone Area", "setting": "neonatal mouse calvaria; combination study, IBN (1 μM), ibandronate 1 μM alone", "result": "3.95 ± 0.28", "unit": "mm^2 × 10^−3"}, {"measurement": "New Bone Area", "setting": "neonatal mouse calvaria; combination study, IBN (10 μM), ibandronate 10 μM alone", "result": "6.03 ± 1.56", "unit": "mm^2 × 10^−3"}]}]}
